Laboratory results reported in patent publication US5571518A, “Cosmetic compositions containing tricholine citrate” (priority 1995, dated 1996).
Read-outs that look alike come from different tables or passages of the source.

Key:
human keratinocytes [1] = experiment: DNA synthesis in keratinocytes (3H-thymidine incorporation, keratinocyte proliferation); format: cell-based; conditions: Homo sapiens, Keratinocyte; for activity at 0.1 µM / activity at 1 µM / activity at 10 µM / activity at 100 µM / activity at 1000 µM / activity at 10000 µM: read-out: Rate of DNA synthesis; for minimal effective concentration: read-out: concentration at which inhibitory to DNA synthesis
From the text: The incorporation of ^3 H-thymidine by cultured keratinocytes was used as an assay of keratinocyte proliferation. Thymidine is one of four deoxynucleosides which are the monomeric units of DNA, the universal library of genetic information in the animal kingdom. Prior to cell division of a somatic cell such as a keratinocyte, the complete genome of the cell undergoing cell division is replicated. This involves large scale DNA synthesis by the cell and enables both daughter cells to receive identical copies of the genetic material. When ^3 H-thymidine is included in the culture media of keratinocytes which are synthesizing DNA in preparation for cell division then the labelled nucleoside is incorporated into the newly synthesized DNA. The extent of incorporation of ^3 H-thymidine into a population of cells is proportional to the rate of DNA synthesis by this population of cells and therefore an indication of their cellular proliferation.
1. Normal human keratinocytes isolated from neonatal foreskins by trypsin treatment were grown in DME medium/5% fetal calf serum in the presence of mitomycin C treated 3T3 mouse fibroblasts for establishing dividing keratinocyte colonies. Keratinocytes were grown under the above condition until their third passage.
2. For the experiments, third passage keratinocytes were plated into a serum-free keratinocyte growth medium (KGM; obtained from Clonetics, San Diego, Calif.) containing 0.09 mM calcium. 20,000 to 30,000 cells were plated into each well of 24 well cell culture plates and grown for 5 days, until the cells reach about 80% confluence.
3. Medium was changed to fresh medium and the various test materials were added to the medium from an ethanolic stock solution. The final ethanol concentration in the cultures was kept below 0.2%. Control cultures received no tested material but were dosed with 0.2% ethanol. Each compound or combination was tested in three separate wells. In four hours, 1 uCi of ^3 H-thymidine (Amersham Corp., Sp activity 40 Ci/mmol) was added to the 1 ml medium in each well. The cells were incubated overnight and 24 hours later the amount of ^3 H-thymidine associated with the cellular DNA of keratinocytes was assessed as described below.
4. The medium was aspirated, and the wells washed with 1 ml phosphate-buffered saline. The DNA and proteins of the cells in the plate were then precipitated by adding 1 ml of ice-cold 10% trichloroacetic acid (TCA). The plates were left on ice for 30 minutes to complete the precipitation process. TCA was then aspirated and each well was then washed four times with 5% TCA. The plates were then dried on a filter pad and the cells in the wells were dissolved in 0.5 ml of 0.1N sodium hydroxide. The sodium hydroxide was then neutralized using 0.1N hydrochloric acid and the solution (1 ml total volume) was then transferred to a scintillation vial. 50 μl samples from each vial were used for protein assay using BCA protein assay reagent obtained from Pierce Chemical Company. 8 ml of a scintillation fluid (Ecolume) was added to the rest of the solution in the vial, and the vials were counted in a scintillation counter to determine the amount of radioactivity in each vial. The DNA synthesis rate was then calculated as cpm ^3 H thymidine incorporated into total cellular DNA/microgram of cell protein for each individual well.

Transglutaminase (TG-1) = experiment: Transglutaminase I levels in keratinocytes (ELISA based TG-1 assay); format: cell-based, human; conditions: 48 hour treatment
Description: (§1) Human keratinocytes, isolated from neonatal foreskin by trypsin treatment were grown in Dulbecco Modification Eagle (DME) Hams F12 (3:1) medium/5% fetal calf serum in the presence of mitomycin C treated 3T3 mouse fibroblasts for establishing dividing keratinocyte colonies. Cells were grown under the above condition until their second passage and kept frozen for future use. Frozen second passage keratinocytes were thawed and plated into the above medium and grown for five days. On day 5, when the cells were 70-80% confluent, they were trypsinized and plated in the serum-free medium for the various experiments.
During the process of terminal differentiation in the epidermis, a 15 nm thick layer of protein, known as the cornified envelope (CE)is formed on the inner surface of the cell periphery. The CE is composed of numerous distinct proteins which have been cross-linked together by the formation of N ^ε -(-γ-glutamyl) lysine isodipeptide bonds catalyzed by the action of at least two different transglutaminases expressed in the epidermis. Transglutaminase (TG-1) is expressed in abundance in the differentiated layers of the epidermis, especially the granular layer, but is absent in the undifferentiated basal epidermis. Thus, TG-1 is a useful marker of epidermal keratinocyte differentiation with high TG-1 levels indicating a more differentiated state. An ELISA based TG-1 assay, using a TG-1 antibody, was used to assess the state of differentiation of the cultured keratinocytes in the examples that follow.
The level of TG-1 was measured as follows. […] The DNA content of the cells in the wells were first determined before the TG-1 assay.
TG-1 levels of the cells in the wells were determined using the TG-1 specific monoclonal antibody (BC1) (first antibody) (obtained from Amersham Life Sciences) and using a peroxidase labelled rabbit antimouse IgG fragment (second antibody). The plates were blocked by 5% nonfat milk in TBS (Tris buffered saline, pH 8.0) for one hour followed by overnight incubation with the first antibody (1:2,000 fold dilution) in 1% milk/TBS at 4° C. After rinsing the plates three times with 1% milk/TBS containing 0.05% Tween 20, the plates were incubated with 1:4000 dilution of the second antibody at room temperature for two hours. The plates were rinsed three times with 1% milk/TBS/Tween and three times with TBS. Color was developed by incubation with o-phenylene diamine and hydrogen peroxide. The optical density was read at 410 nm in a microtiter plate reader and the TG-1 levels were calculated as OD/DNA fluorescence. The mean ±Standard Deviation of at least six separate wells were used for calculation and statistical analysis of the data. Results are expressed as % of control.
Cornified envelope formation is determined by the activity of transglutaminase enzyme which cross-links all the envelope precursor proteins to form the envelope. This enzyme is calcium dependent and is inhibited by calcium chelators such as citric acid and citric acid esters.

human keratinocytes [2] = experiment: 3H choline incorporation into phospholipids of keratinocytes; format: cell-based; conditions: Homo sapiens, Keratinocyte, 48 hours, * statistically significant effects, read-out: 3H choline incorporated into cellular phospholipids
Description: as §1
Choline acts as an essential nutrient for the cellular phospholipid biosynthesis of keratinocytes. Choline present in the medium is used up by the cells for phospholipid biosynthesis. If TCC provides choline for the cells it will complete with the choline in the medium for incorporation into cellular phospholipids. When cells are incubated with ^3 H-labelled choline, its incorporation into phospholipids will be decreased by the presence of unlabelled choline or TCC in the medium.
[…] The wells were washed, total lipids were extracted using Bleigh Dyer method as described above and the total counts in the chloroform phase was determined. To ascertain that the counts are present only in the phospholipid fraction, the amount of ^3 H choline incorporated into the different lipid fractions were quantitated by running TLC of the fractions in the above solvent system, and the amount of radioactivity in the phospholipid fraction (origin) was quantitated using BioScan plate reader. The cpm of ^3 H choline was plotted against the amount of cold choline or TCC added in the medium to assess the competition between choline supplied from TCC with ^3 H choline.
The amount of ^3 H choline incorporated into cellular phospholipids was determined and expressed as % of controls.

[3] = 100 μM, 24 hours exposure, ±SD, * statistically significant compared to controls
[4] = 1000 μM, 24 hours exposure, ±SD, * statistically significant compared to controls
[5] = 10,000 μM, 24 hours exposure, ±SD, * statistically significant compared to controls
[6] = 10 μM, * statistically significant
[7] = 100 μM, * statistically significant

SMILES	activity at 0.1 µM (human keratinocytes [1]; 0.1 μM, 24 hours exposure, ±SD) [%]	activity at 1 µM (human keratinocytes [1]; 1.0 μM, 24 hours exposure, ±SD) [%]	activity at 10 µM (human keratinocytes [1]; 10 μM, 24 hours exposure, ±SD) [%]	activity at 100 µM (human keratinocytes [1]; [3]) [%]	activity at 1000 µM (human keratinocytes [1]; [4]) [%]	activity at 10000 µM (human keratinocytes [1]; [5]) [%]	minimal effective concentration (human keratinocytes [1]; 24 hours exposure) [µM]	transglutaminase I levels (Transglutaminase (TG-1); 1 μM)	transglutaminase I levels (Transglutaminase (TG-1); [6])	transglutaminase I levels (Transglutaminase (TG-1); [7])	activity at 10 µM (human keratinocytes [2]) [%]	activity at 100 µM (human keratinocytes [2]) [%]	activity at 1000 µM (human keratinocytes [2]) [%]	activity at 0.1 µM (human keratinocytes [1]; 24 h) [%]	activity at 1 µM (human keratinocytes [1]; 24 h) [%]	activity at 10 µM (human keratinocytes [1]; 24 h) [%]	activity at 100 µM (human keratinocytes [1]; 24 h) [%]	activity at 1000 µM (human keratinocytes [1]; 24 h) [%]	activity at 10000 µM (human keratinocytes [1]; 24 h) [%]
CCOC(=O)CC(O)(CC(=O)OCC)C(=O)OCC [TEC, triethylcitrate]	112 ± 21.5	112 ± 13.1	79.1 ± 13.9	9.8 ± 2.3	11.2 ± 9.2	1.2 ± 0.02	> 10	77.3 ± 10.7 % of control	76.7 ± 20.8 % of control	67.2 ± 11.9 % of control	114 ± 9.9	89.2 ± 1.9	82.8 ± 22	–	–	–	–	–	–
CCCCOC(=O)CC(O)(CC(=O)OCCCC)C(=O)OCCCC [TBC, tributylcitrate]	106 ± 8.4	100 ± 28	68.2 ± 13	8.7 ± 5.5	1.35 ± 0.1	0.505	> 10	100 ± 13 % of control	79 ± 13 % of control	79 ± 13 % of control	81.1 ± 7	121 ± 6.7	81.1 ± 12	–	–	–	–	–	–
C[N+](C)(C)CCO [Choline, choline]	–	–	–	–	–	–	–	121.8 ± 18 % of control	124.2 ± 8.7 % of control	120.4 ± 11.3 % of control	61.6 ± 7.8	36.9 ± 1.6	10.8 ± 5.5	125 ± 17.6	113 ± 12	109 ± 3.3	114 ± 12	115 ± 24	127 ± 10.7
